One block for each molecule: values may come before it.
Columns and labels:
[1] = test system: experimental colitis induced by TNB (2,4,6-trinitrobenzenesulphonic acid); assay: Rat model of experimental colitis induced by TNB, macroscopic evaluation; format: in vivo; set-up: Wet Weight (colon): unit not given beside the values; conditions: Wistar rat, 2.5 mg/Kg p.o.; for Wet Weight (colon) / Sample 2 × 6 mm / Score (0-10) / Weight/mm: Mean ± SEM
Protocol: The therapeutic potential for the treatment of ulcerative colitis of IEC01 at 2.5 and 5 mg/kg and IES01 at 2.5 mg/kg, was evaluated after their administration by oral route during 14 days (7 days of preventive treatment and 7 days of therapeutic treatment) using the rat model of experimental colitis induced by TNB (2,4,6-trinitrobenzenesulphonic acid). As reference parameters, the body weight, wet colon weight and score macroscopic evaluation were evaluated after 24 hours and after 7 days of the intraluminal administration of TNB in the colon. […] The inflammatory response is recognised by the presence of ulcerative fissures, faecal shatters and inflammation of bowel wall. A chronic inflammatory response was observed 7 days after the administration. An erratic response with lineal or punctual ulcers, necrosis, faecal shatters, reduction of colonic lumen, granulomas and peritoneal adherence was observed.

[2] = Body weight evaluation in the TNB colitis rat model; format: in vivo; conditions: Wistar rat, 2.5 mg/Kg p.o.; Mean ± SEM
Protocol: The therapeutic potential for the treatment of ulcerative colitis of IEC01 at 2.5 and 5 mg/kg and IES01 at 2.5 mg/kg, was evaluated after their administration by oral route during 14 days (7 days of preventive treatment and 7 days of therapeutic treatment) using the rat model of experimental colitis induced by TNB (2,4,6-trinitrobenzenesulphonic acid). As reference parameters, the body weight, wet colon weight and score macroscopic evaluation were evaluated after 24 hours and after 7 days of the intraluminal administration of TNB in the colon.

[3] = test system: bentonite-induced skin edema in mice; assay: Bentonite-induced skin edema in mice; format: in vivo; conditions: for Area (area below the curve of difference between right and left pad diameter) / Inhibition of the inflammatory process: mice; for Inhibition of the inflammatory process: versus inflamed control
Text: Mice were individually identified with an ear code and were kept in groups of 6 per cage (Makrolon: 47.6×22.7×14.5 cm). Each cage was individually labelled with the n^o. of the study, type of treatment, doses used and route of administration, as well as the name of the director of the study, number and gender of contained animals, date of arrival and of the beginning of the experiment.
The animals had free access to mouse standard chow (UAR A04C; Usine d'Alimentation Rationelle, 91360-Villemoisson sur Orge, Francia; lot nos. 70520 and 70722). Drinking water access was ad libitum. The water, supplied by the Compañia de Aguas de Sabadell, S.A., is routinely analysed for the presence of possible contaminants. The temperature in the animal rooms was 22±3° C., with sporadic peaks of 26° C.; air humidity was 60±10%, with sporadic peaks of 80%. Daily light (between 7:00 h and 19:00 h) and dark phases were installed automatically.
Upon arrival, all animals were allowed to rest in the facilities for 8 days before use in the experiment. Table 2 indicates the six random groups of 10 mice each were set for experimentation.
The diameter of both hind pads of all mice was measured at day 0 and set as the basal value. Edema was then induced by injecting s.c. 13.3 mg/ml bentonite in 0.03 ml PBS into the right food pad. The corresponding mice were given daily the different compounds orally for 21 days. The inflamed control group was given 0.2 ml PBS only. The diameter of hind pads, as well as the body weight, was then measured every other day.
In each experimental group the average value, the standard deviation (SD) and the standard error was determined for the two parameters studied (hind pad diameter and body weight). The factor variance analysis (FVA) was used to compare the values obtained in the different groups. Where statistically significant differences were observed, the Duncan-Kramer test for a p<0.05 was applied.
The area below the curves corresponding to the diameters of the right and left pads was calculated and the evolution of the difference between them were plotted (FIGS. 7 and 8). The anti-inflammatory capacity of the different substances was evaluated as the extent of inhibition of the inflammatory process that was calculated with the formula [formula]
where C is the area below the inflammed control group and T the area below the different treatment groups.

[4] = test system: PGE2 production in murine fibroblasts 3T3; assay: PGE2 measurement in 3T3 cells (enzyme immunoassay); format: cell-based, Mouse; conditions: for pg PGE2 (intracellular): 3T3 cells, 20 min at 37° C., Control 112 ± 21; for effect on PGE2 production (in words): 3T3 fibroblasts, ionomycin-induced PGE2
Protocol: Cell culture. Human promyelocytic HL-60 cells and promonocytic U937 cells were grown in RPMI-1640 culture medium supplemented with 10% (v/v) heat-inactivated fetal calf serum, 2 mM L-glutamine, 100 units/ml penicillin and 24 μg/ml gentamicin. Mouse 3T3 fibroblasts were grown in Dulbecco's modified Eagle's medium (DMEM) supplemented with 10% (v/v) heat-inactivated fetal calf serum, 2 mM L-glutamine, 100 units/ml penicillin and 24 μg/ml gentamicin. Cells were incubated at 37° C. in a humidified atmosphere at 5% CO2 and 95% air.
Prostaglandin E2 (PGE2) measurement. 3T3 cells (1.5×10^5 in 100 μl in complete DMEM culture medium) were incubated overnight at 37° C. (5% CO2) in 96-well microtitre plates (tissue-culture grade). Then, the distinct agents were added in 100 μl complete DMEM culture medium for 20 min at 37° C. After washing thoroughly the cells with PBS, cells were lysed and intracellular PGE2 was measured using an enzyme immunoassay kit (Amersham Pharmacia Biotech, Buckinghamshire, UK) following the manufacturer's instructions. Data obtained in duplicate measurements were converted into actual amounts of PGE2 using a calibration curve run in parallel with defined amounts of PGE2.

[5] = test system: PGE2 synthesis in human mucosal gastric biopsies; assay: Ex vivo PGE2 synthesis in human mucosal gastric biopsies; conditions: for pg PGE2/mg (weight): human mucosal gastric biopsies, agents 10 μM, 20 min at 37° C., Control 115 ± 26, mean ± S.D., three experiments
Protocol: The ability of the gastric mucosa to generate prostaglandins estimates total cyclooxygenase (COX) activity (COX-1 plus any COX-2). To measure ex vivo prostaglandin E2 (PGE2) synthesis, normal gastric mucosal biopsies were immediately placed in Ependorff tubes containing phosphate-buffered saline (PBS). […] Each mucosal gastric biopsy was cut into different pieces (about 1 mg weight) that were subsequently weighed and incubated in the absence or in the presence of the distinct agents indicated in the corresponding Table for 20 min at 37° C. in 200 μl Hepes-glucose buffer. Then cells were mucosal gastric samples were pelleted by centrifugation, lysed and intracellular PGE2 was measured using an enzyme immunoassay kit (Amersham Pharmacia Biotech, Buckinghamshire, UK) following the manufacturer's instructions. Prostaglandin synthesis is expressed as picograms of PGE2 synthesised per mg of tissue incubation. Each experiment corresponded to the use of one biopsy, in order to avoid variability among different biopsies. Normal volunteers without a previous pharmacological treatment were selected for these assays. The normal gastroduodenal mucosa was visually assessed by endoscopy.
Human mucosal gastric biopsies were cut into about 1 mg pieces, incubated with the indicted agents (10 μM) for 20 min at 37° C. in Hepes-glucose buffer, and then the intracellular content of PGE2 was determined as described in the Methods section. Untreated control samples were run in parallel. Data are shown as mean Values+S.D. from three independent experiments.

[6] = test system: CD11b; assay: Cell surface expression of CD11b in human neutrophils (immunofluorescence flow cytometry); format: cell-based; conditions: 10 ng/ml, rMFI=(MFIagent×100)/MFImedium, Medium = 100
Text: (§1) Isolation and treatment of neutrophils.
(§2) Monoclonal antibodies. […] The antibodies are commercially available.
(§3) Immunofluorescence flow cytometry. […] Results were expressed as relative MFI (rMFI), such that
(§4) rMFI=(MFIagent×100)/MFImedium
(§5) Background fluorescence was substracted from all values.

[7] = test system: L-selectin (CD62L); assay: Cell surface expression of L-selectin in human neutrophils (immunofluorescence flow cytometry); format: cell-based
Text: as §1, §2, §3, §4, §5

[8] = test system: CD43; assay: Cell surface expression of CD43 in human neutrophils (immunofluorescence flow cytometry); format: cell-based; conditions: 10 ng/ml, Medium = 100
Text: as §1, §2, §3, §4, §5

[9] = test system: CD44; assay: Cell surface expression of CD44 in human neutrophils (immunofluorescence flow cytometry); format: cell-based; conditions: 10 ng/ml, Medium = 100
Text: as §1, §2, §3, §4, §5

[10] = test system: CD11a; assay: Cell surface expression of CD11a in human neutrophils (immunofluorescence flow cytometry); format: cell-based; conditions: 10 ng/ml, Medium = 100
Text: as §1, §2, §3, §4, §5

[11] = test system: HLA; conditions: human neutrophils, 10 ng/ml; Medium = 100
Protocol: Isolation and treatment of neutrophils. Human neutrophils were obtained from fresh peripheral blood by dextran sedimentation and centrifugation on Ficoll-Hypaque followed by hypotonic lysis of residual erythrocytes. […] Cells were resuspended at 3×10^6 neutrophils/ml in HEPES/glucose buffer (150 mM NaCl, 5 mM KCl, 10 mM HEPES, 1.2 mM MgCl2, 1.3 mM CaCl2, 5.5 mM glucose, pH 7.5), and incubated in the absence or presence of distinct agents at 37° C. for the times indicated in the respective legends to figures. Subsequently, cells were pelleted by centrifugation and saved to determine the content of different cell surface antigens by flow cytometry.
Monoclonal antibodies. The following monoclonal antibodies were used: TS1/11 anti-CD11a, Bear-1 anti-CD11b, TP1/36.1 anti-CD43, HP2/9 anti-CD44, Leu-8 anti-L-selectin, and W6/32, specific for a monomorphic determinant on HLA-A, B molecules. P3X63 myeloma culture supernatant was used as a negative control. The antibodies are commercially available.
Immunofluorescence flow cytometry. Immunofluorescence flow cytometry analysis was performed in a FACStar-Plus and a FACScan flow cytometers (Becton-Dickinson). Neutrophils were incubated at 4° C. with the corresponding monoclonal antibody followed by washing and labelling with a fluorescein isothiocyanate (FITC)-labelled-goat anti-mouse IgG antibody (DAKO, Glostrup, Denmark). Mean fluorescence intensity (MFI) in linear scale was obtained from at least 7000 cells in each sample, and the fluorescence produced by the myeloma P3X63 supernatant was considered as background. Results were expressed as relative MFI (rMFI), such that
as §4, §5

[12] = test system: L-selectin (CD62L); conditions: literature value, González-Alvaro et al., J. Rheumatol., 23, 723 (1996); cited from earlier work
[13] = after 24 hours of intraluminal administration
[14] = after 7 days of intraluminal administration
[15] = 2.5 mg/kg orally daily for 21 days
[16] = 5 mg/kg orally daily for 21 days
[17] = 2 mg/kg orally daily for 21 days

SMILES: CCCCCCCCCCCCCCCCOCC(COP(=O)(O)OCC(N)C(=O)O)OC (stereo not drawn) [IES01]
% (inhibition, Sample 2 × 6 mm) [1, 13]: 80.2% | % (inhibition, Score) [1, 13]: 65.7% | % (inhibition, Weight/mm) [1, 13]: 75.2% | % (inhibition, Wet Weight) [1, 13]: 75.3% | Wet Weight (colon) ([1]; after 24 hours of intraluminal administration in the colon): 1.425 ± 0.20 | Sample 2 × 6 mm [1, 13]: 272.70 ± 44.43 mg | Score (0-10) [1, 13]: 3.2 ± 0.86 | Weight/mm [1, 13]: 0.158 ± 0.02 | % (inhibition, Sample 2 × 6 mm) [1, 14]: 31.7% | % (inhibition, Weight/mm) [1, 14]: 11.1% | % (inhibition, Wet Weight) [1, 14]: 11.1% | Wet Weight (colon) ([1]; after 7 days of intraluminal administration in the colon): 1.365 ± 0.24 | % (inhibition, Score) ([1]; after 7 days of intraluminal administration, 2.5 mg/kg): 50% | Sample 2 × 6 mm [1, 14]: 185.04 ± 23.18 mg | Score (0-10) [1, 14]: 2.0 ± 0.84 | Weight/mm [1, 14]: 0.151 ± 0.03 | Body weight DAY 1 [2]: 232.3 ± 2.68 g | Body weight DAY 2 [2]: 234.5 ± 2.94 g | Body weight DAY 4 [2]: 241.9 ± 2.40 g | Body weight DAY 7 [2]: 211.4 ± 2.48 g | Body weight DAY 8 [2]: 218.8 ± 3.57 g | Body weight DAY 11 [2]: 244.4 ± 4.95 g | Body weight DAY 12 [2]: 250.0 ± 4.72 g | Body weight DAY 13 [2]: 249.8 ± 6.84 g | Body weight DAY 14 [2]: 254.0 ± 8.44 g | times more efficient in inhibiting inflammation than indomethacin, at the molecular level ([3]; 2.5 mg/kg versus indomethacin 2 mg/kg, taking molecular weights into account): 3.8 times | Area (area below the curve of difference between right and left pad diameter) [3, 15]: 4.4 ± 0.63 A.U. | Inhibition of the inflammatory process [3, 15]: 43.8% | Area (area below the curve of difference between right and left pad diameter) [3, 16]: 5.6 ± 0.70 A.U. | Inhibition of the inflammatory process [3, 16]: 28.3% | pg PGE2 (intracellular) ([4]; 10 μM): 192 ± 25 pg | effect on PGE2 production (in words) [4]: no significant inhibition

SMILES: COc1ccc2c(c1)c(CC(=O)O)c(C)n2C(=O)c1ccc(Cl)cc1 [Indomethacin, reference compound]
Area (area below the curve of difference between right and left pad diameter) [3, 17]: 6.6 ± 0.92 A.U. | Inhibition of the inflammatory process [3, 17]: 15.3% | pg PGE2/mg (weight) [5]: 7 ± 2 pg PGE2/mg | effect on mucosal PGE2 synthesis (in words) ([5]; normal mucosal gastric biopsies, ex vivo): completely blocked | pg PGE2 (intracellular) ([4]; 50 μM): 4 ± 2 pg | effect on PGE2 production (in words) [4]: almost completely inhibited

SMILES: C[C@H](CCC(=O)O)C[C@H](C)C[C@H](C)C(=O)/C=C(\O)[C@H](C)C[C@H](C)C/C=C/[C@@H](C)[C@@H](O)[C@@H](C)[C@@H](O)C[C@@H]1CC[C@@](C)([C@H]2CC[C@@](C)([C@@H](C)O)O2)O1 [Ionomycin, reference compound]
pg PGE2/mg (weight) [5]: 308 ± 31 pg PGE2/mg | pg PGE2 (intracellular) ([4]; 50 μM): 486 ± 38 pg

SMILES: CCCCCCCCCCCCCC(=O)O[C@@H]1[C@@H](C)[C@@]2(O)[C@@H](C=C(CO)C[C@]3(O)C(=O)C(C)=C[C@@H]23)[C@@H]2C(C)(C)[C@]12OC(C)=O [PMA, reference compound]
CD11b cell surface expression (rMFI) [6]: 272 ± 22 | L-Selectin cell surface expression (rMFI) ([7]; human neutrophils, 10 ng/ml, Medium = 100): 38 ± 7 | CD43 cell surface expression (rMFI) [8]: 33.5 ± 9 | CD44 cell surface expression (rMFI) [9]: 49.5 ± 11 | CD11a cell surface expression (rMFI) [10]: 95 ± 8 | HLA cell surface expression (rMFI) [11]: 96 ± 7

IC50 ([7]; converted from μg/ml values, read-out: IC50 for L-selectin down-regulation, corrected for molecular weight): 14.1 µM
SMILES: O=C(O)COC(=O)Cc1ccccc1Nc1c(Cl)cccc1Cl [aceclofenac, reference compound]
IC50 for L-selectin down-regulation [12]: 5 µg/mL

Reference: US6583127B1, “Use of etherlysophospholipids as antiinflammatory agents” (Inkeysa. SA, priority 1998, dated 2003)
